*1 amine or outer side, *2 acyl side, *3 side chain or, on linkers, in order; H or OH if unused. Where a SMILES comes first, the peptide text is derived from it. Bridges are numbered along the chain shown (N, C = ends). [ ]: non-standard residue; d: D form. The star is where a group is joined. NMeNva(5-imidazol-1-yl) = CN[C@@H](CCCn1ccnc1)C(=O)O; Phe(4-guanidino) = N=C(N)Nc1ccc(C[C@H](N)C(=O)O)cc1; X44 = C[C@@H](c1ccccc1)[C@@H](C(=O)[*:2])N(C)[*:1]; X23 = O=C([C@H](Cc1ccc(C(F)(F)F)nc1)N[*:1])[*:2]; Ala(pyrimidin-5-yl) = N[C@@H](Cc1cncnc1)C(=O)O; Phe(3-COOH) = N[C@@H](Cc1cccc(C(=O)O)c1)C(=O)O; X25 = O=C([C@H](Cc1ccc(F)nc1)N[*:1])[*:2]; X24 = O=C([C@H](Cc1ccncc1Cl)N[*:1])[*:2]; X26 = Cn1cc(C[C@H](N[*:1])C(=O)[*:2])cn1; X11 = CC(C)(F)CC[C@H](N[*:1])C(=O)[*:2]; X46 = O=C([C@H](Cc1cccnc1F)N[*:1])[*:2]; NMeAha = CN[C@@H](CCN=[N+]=[N-])C(=O)O; X2 = O=C([C@H](Cc1ccccc1F)O[*:1])[*:2]; 1Nal = N[C@@H](Cc1cccc2ccccc12)C(=O)O; NHCH2CH2SCH2CO = O=C(CSCCN[*:1])[*:2]; Phe(2-F) = N[C@@H](Cc1ccccc1F)C(=O)O; Abu(4,4-F2) = N[C@@H](CC(F)F)C(=O)O; NMe3Pal = CN[C@@H](Cc1cccnc1)C(=O)O; NMeY = CN[C@@H](Cc1ccc(O)cc1)C(=O)O; X1 = O=C(C12CC(CN[*:1])(C1)C2)[*:2]; X38 = NC(=O)CCCN(CC(=O)[*:2])[*:1]; Ala(cPr) = N[C@@H](CC1CC1)C(=O)O; NMeF = CN[C@@H](Cc1ccccc1)C(=O)O; PhLac = O=C(O)[C@@H](O)Cc1ccccc1; 3Pal = N[C@@H](Cc1cccnc1)C(=O)O; Ahp(2) = CCCCC[C@H](N)C(=O)O; Cba = N[C@@H](CC1CCC1)C(=O)O; hLeu = CC(C)CC[C@H](N)C(=O)O; αMeC = C[C@](N)(CS)C(=O)O; NMeA = CN[C@@H](C)C(=O)O; Nle = CCCC[C@H](N)C(=O)O; Pra = C#CC[C@H](N)C(=O)O; Pyrrolidide = C1CCN(*)C1

phosphorylation levels of ERK1/2 in AsPC-1 (homozygous KRAS-G12D) cells, sequence (P01116 1-186 G12D): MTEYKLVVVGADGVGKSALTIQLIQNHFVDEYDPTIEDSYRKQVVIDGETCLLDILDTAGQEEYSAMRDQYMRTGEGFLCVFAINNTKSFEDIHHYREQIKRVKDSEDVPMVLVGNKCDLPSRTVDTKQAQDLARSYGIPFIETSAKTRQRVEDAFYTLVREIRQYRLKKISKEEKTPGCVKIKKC

This experiment concerns the target phosphorylation levels of ERK1/2 in AsPC-1 (homozygous KRAS-G12D) cells (Homo sapiens, UniProt P01116, G12D). Briefly: Cellular phospho-ERK assay in AsPC-1 cells (Alpha Screen), assay medium without fetal bovine serum.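 Note: signal taken as phospho-ERK over total ERK per well, both detected in one multiplex bead assay, EC50 from four-parameter logistic fit of dose-response curves.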 The class given is cell-based. The settings on record: phospho-ERK AlphaScreen, 18 h.
The compound `CON=C1C[C@@H](Cc2ccccc2)C(=O)N(C)[C@@H](C)C(=O)N[C@@H](Cc2cncnc2)C(=O)N[C@@H](CC2CC2)C(=O)N[C@@H](Cc2ccccc2F)C(=O)N[C@@H](CCC(C)(F)F)C(=O)N(C)[C@@H](Cc2ccccc2)C(=O)NCC23CC1(C2)C3` (single isomer, unassigned) [compound 177, cyclo(CPhe-NMeA-PyrimAla-cPrA-Phe2F-Nle3F2-NMeF-MeOximamBCP)] showed a concentration for a half-maximal effect (EC50) of 3.4 µM.
The figure for `CCCCC[C@@H]1NC(=O)[C@H](CC(=O)N2CCCC2)NC(=O)[C@H](CC2CCC2)NC(=O)[C@H](Cc2cccnc2)NC(=O)[C@H](CCCNC(=N)N)NC(=O)[C@H](Cc2ccccc2)NC(=O)CSC[C@@](C)(C(N)=O)NC(=O)[C@H](Cc2ccccc2)N(C)C1=O` [compound 373, cyclo(F-R~3Pal-cBuA-PyD-Ahp-NMeF-aMeCl-ClAc)] ({CH2CO}-FR[3Pal][Cba]D(Pyrrolidide)[Ahp(2)][NMeF][αMeC]-NH2; thioether N-8) is above 50.8 µM; for `CCCC[C@@H]1NC(=O)[C@H](Cc2cncnc2)NC(=O)[C@H](C)N(C)C(=O)[C@H](Cc2ccccc2)OC(=O)C23CC(CNC(=O)[C@H](Cc4ccc(OC)cc4)N(C)C(=O)[C@H](CCCC)NC(=O)[C@H](Cc4ccccc4F)NC1=O)(C2)C3` [compound 175, cyclo(FLac-NMeA-PyrimAla-Nle-Phe2F-Nle-NMeYOMe-amBCP)] (cyclo([NMeA][Ala(pyrimidin-5-yl)][Nle][Phe(2-F)][Nle][NMeY](Me)[X1][PhLac])) it is 0.439 µM.
For `CCCC[C@@H]1NC(=O)[C@H](Cc2cccnc2)NC(=O)[C@H](C)N(C)C(=O)[C@H](Cc2ccc(F)nc2)NC(=O)C23CC(CNC(=O)[C@H](Cc4cccnc4)N(C)C(=O)[C@H](CCCC)NC(=O)[C@H](Cc4ccccc4F)NC1=O)(C2)C3` [compound 165, cyclo(4F3Pal-NMeA-3Pal-Nle-Phe2F-Nle-NMe3Pal-amBCP)] (cyclo([3Pal][Nle][Phe(2-F)][Nle][NMe3Pal][X1][X25][NMeA])) the value was above 50.8 µM; for `C#CC[C@@H]1NC(=O)[C@H](CC2CC2)NC(=O)[C@H](Cc2cncnc2)NC(=O)[C@H](C)N(C)C(=O)[C@H](Cc2ccccc2)OC(=O)C23CC(CNC(=O)[C@H](Cc4ccccc4)N(C)C(=O)[C@H](CCC(C)C)NC1=O)(C2)C3` [compound 286, cyclo(FLac-NMeA-PyrimAla-cPrA-Pra-hL-NMeF-amBCP)] (cyclo([Ala(cPr)][Pra][hLeu][NMeF][X1][PhLac][NMeA][Ala(pyrimidin-5-yl)])), 30.3 µM; for `CCCCC[C@@H]1NC(=O)[C@H](Cc2ccc(OC)cc2)NC(=O)[C@H](CC2CCC2)NC(=O)[C@H](Cc2ccc(NC(=N)N)cc2)NC(=O)CN(CCCC(N)=O)C(=O)[C@H](Cc2ccccc2)NC(=O)CSC[C@@](C)(C(N)=O)NC(=O)[C@H](Cc2ccccc2)N(C)C1=O` [compound 386, cyclo(F-Cmpg-Phe4Gn-cBuA-TyrOMe-Abp-NMeF-aMeCl-ClAc)] ({CH2CO}-F[X38][Phe(4-guanidino)][Cba]Y(Me)[Ahp(2)][NMeF][αMeC]-NH2; thioether N-8), above 50.8 µM.
The figure for `CCCC[C@@H]1NC(=O)[C@H](Cc2cncnc2)NC(=O)[C@H](CCN=[N+]=[N-])N(C)C(=O)[C@H](Cc2ccccc2)OC(=O)C23CC(CNC(=O)[C@H](Cc4cccnc4)N(C)C(=O)[C@H](CCCC)NC(=O)[C@H](Cc4ccccc4F)NC1=O)(C2)C3` [compound 242, cyclo(FLac-NMeDabN3-PyrimAla-Nle-Phe2F-Nle-NMe3Pal-amBCP)] (cyclo([NMe3Pal][X1][PhLac][NMeAha][Ala(pyrimidin-5-yl)][Nle][Phe(2-F)][Nle])) is 11.6 µM.
In turn, `C[C@H]1C(=O)N[C@@H](Cc2cncnc2)C(=O)N[C@@H](CC2CC2)C(=O)N[C@@H](Cc2ccncc2Cl)C(=O)N[C@@H](CCC(C)(C)F)C(=O)N(C)[C@@H](Cc2ccccc2)C(=O)NCC23CC(C2)(C3)C(=O)O[C@@H](Cc2ccccc2)C(=O)N1C` [compound 299, cyclo(FLac-NMeA-PyrimAla-cPrA-4Pal2Cl-hL3F-NMeF-amBCP)] (cyclo([Ala(cPr)][X24][X11][NMeF][X1][PhLac][NMeA][Ala(pyrimidin-5-yl)])) returned an EC50 above 50.8 µM.
The figure for `C[C@H]1C(=O)N[C@@H](Cc2cncnc2)C(=O)N[C@@H](CC2CC2)C(=O)N[C@@H](Cc2ccccc2F)C(=O)NC2CC/C=C\CC[C@@H](C(=O)NCC34CC(C3)(C4)C(=O)O[C@@H](Cc3ccccc3)C(=O)N1C)N(C)C2=O` [SEQ ID NO: 182, cyclo(FLac-NMeA-PyrimAla-cPrA-Phe2F-Hag-NMeHag-amBCP)] is 41.2 µM.
In turn, `CCCC[C@@H]1NC(=O)[C@H](Cc2cncnc2)NC(=O)[C@H](CCCn2ccnc2)N(C)C(=O)[C@H](Cc2ccccc2)OC(=O)C23CC(CNC(=O)[C@H](Cc4cccnc4)N(C)C(=O)[C@H](CCCC)NC(=O)[C@H](Cc4ccccc4F)OC1=O)(C2)C3` [compound 246, cyclo(FLac-NMeNvalmid-PyrimAla-Nle-F2FLac-Nle-NMe3Pal-amBCP)] (cyclo([NMe3Pal][X1][PhLac][NMeNva(5-imidazol-1-yl)][Ala(pyrimidin-5-yl)][Nle][X2][Nle])) came in with an EC50 above 50.8 µM.
For `CCCC[C@@H]1NC(=O)[C@H](Cc2cnn(C)c2)NC(=O)[C@H](C)N(C)C(=O)[C@H](Cc2ccccc2)OC(=O)C23CC(CNC(=O)[C@H](Cc4cccnc4)N(C)C(=O)[C@H](CCCC)NC(=O)[C@H](Cc4ccccc4F)NC1=O)(C2)C3` [compound 400, cyclo(FLac-NMeA-Ala4PyzlMe-Nle-Phe2F-Nle-NMe3Pal-amBCP)] (cyclo([NMe3Pal][X1][PhLac][NMeA][X26][Nle][Phe(2-F)][Nle])) the value was 31.4 µM; for `CCCC[C@@H]1NC(=O)[C@H](CCCCN)NC(=O)[C@H](CCCNC(=N)N)NC(=O)[C@H](Cc2cccc3ccccc23)NC(=O)CSCCNC(=O)[C@H](Cc2ccccc2)N(C)C(=O)[C@H](CCCC)NC(=O)[C@H](Cc2cccc(C(=O)O)c2)NC1=O` [compound 197, cyclo(1Nal-R-K-Nle-Phe3COOH-Nle-NMeF-Cysteamine)-ClAc] (cyclo([1Nal]RK[Nle][Phe(3-COOH)][Nle][NMeF][NHCH2CH2SCH2CO])), above 50.8 µM.
For `C[C@H]1C(=O)N[C@@H](Cc2cncnc2)C(=O)N[C@@H](CC2CCC2)C(=O)N[C@@H](Cc2ccccc2F)C(=O)N[C@@H](CCC(C)(C)F)C(=O)N(C)[C@@H](Cc2ccccc2)C(=O)NCC23CC(C2)(C3)C(=O)O[C@@H](Cc2ccccc2)C(=O)N1C` [compound 225, cyclo(FLac-NMeA-PyrimAla-cBuA-Phe2F-hL3F-NMeF-amBCP)] (cyclo([Cba][Phe(2-F)][X11][NMeF][X1][PhLac][NMeA][Ala(pyrimidin-5-yl)])) the value was 0.674 µM; for `CCCC[C@@H]1NC(=O)[C@H](Cc2cccnc2)NC(=O)[C@H](C)N(C)C(=O)[C@H](Cc2ccccc2)OC(=O)C23CC(CNC(=O)[C@H](Cc4ccccc4)N(C)C(=O)[C@H](CCCC)NC(=O)[C@H](Cc4ccccc4F)NC1=O)(C2)C3` [compound 236, cyclo(FLac-NMeA-3Pal-Nle-Phe2F-Nle-NMeF-amBCP)] (cyclo([3Pal][Nle][Phe(2-F)][Nle][NMeF][X1][PhLac][NMeA])), 1.44 µM; for `CCCC[C@@H]1NC(=O)[C@H](Cc2cncnc2)NC(=O)[C@H](CCCn2ccnc2)N(C)C(=O)[C@H](Cc2ccccc2)OC(=O)C23CC(CNC(=O)[C@H](Cc4ccccc4)N(C)C(=O)[C@H](CCCC)NC(=O)[C@H](Cc4ccccc4F)NC1=O)(C2)C3` (single isomer, unassigned) [compound 222, cyclo(FLac-NMeNvalmid-PyrimAla-Nle-Phe2F-Nle-NMeF-amBCP)], above 50.8 µM.
In turn, `CCCC[C@@H]1NC(=O)[C@H](Cc2ccccc2F)NC(=O)[C@H](CC(C)C)NC(=O)[C@H](Cc2cncnc2)NC(=O)[C@H](C)N(C)C(=O)[C@H](Cc2ccccc2)OC(=O)C23CC(CNC(=O)[C@H](Cc4cccnc4)N(C)C1=O)(C2)C3` [compound 129, cyclo(FLac-NMeA-PyrimAla-L-Phe2F-Nle-NMe3Pal-amBCP)] (cyclo([PhLac][NMeA][Ala(pyrimidin-5-yl)]L[Phe(2-F)][Nle][NMe3Pal][X1])) registered an EC50 above 50.8 µM.
The compound `CCCC[C@@H]1NC(=O)[C@H](Cc2ccc(C(F)(F)F)nc2)NC(=O)[C@H](CCN=[N+]=[N-])N(C)C(=O)[C@H](Cc2ccccc2)OC(=O)C23CC(CNC(=O)[C@H](Cc4cccnc4)N(C)C(=O)[C@H](CCCC)NC(=O)[C@H](Cc4ccccc4F)NC1=O)(C2)C3` [compound 241, cyclo(FLac-NMeDabN3-4CF33Pal-Nle-Phe2F-Nle-NMe3Pal-amBCP)] (cyclo([NMe3Pal][X1][PhLac][NMeAha][X23][Nle][Phe(2-F)][Nle])) showed an EC50 of 6.12 µM.
The figure for `CC(C)CC[C@@H]1NC(=O)[C@H](Cc2ccccc2F)NC(=O)[C@H](CC(F)F)NC(=O)[C@H](Cc2cncnc2)NC(=O)[C@H](C)N(C)C(=O)[C@H](Cc2ccccc2)OC(=O)C23CC(CNC(=O)[C@H](Cc4ccccc4)N(C)C1=O)(C2)C3` [compound 304, cyclo(FLac-NMeA-PyrimAla-AbuF2-Phe2F-hL-NMeF-amBCP)] (cyclo([NMeA][Ala(pyrimidin-5-yl)][Abu(4,4-F2)][Phe(2-F)][hLeu][NMeF][X1][PhLac])) is 1.87 µM; for `CC(C)CC[C@@H]1NC(=O)[C@H](Cc2cccnc2F)NC(=O)[C@H](CC2CC2)NC(=O)[C@H](Cc2cncnc2)NC(=O)[C@H](C)N(C)C(=O)[C@H](Cc2ccccc2)OC(=O)C23CC(CNC(=O)[C@H](Cc4ccccc4)N(C)C1=O)(C2)C3` [compound 215, cyclo(FLac-NMeA-PyrimAla-cPrA-3Pal2F-hL-NMeF-amBCP)] (cyclo([Ala(cPr)][X46][hLeu][NMeF][X1][PhLac][NMeA][Ala(pyrimidin-5-yl)])) it is 4.18 µM; for `C[C@@H](c1ccccc1)[C@H]1C(=O)NCC23CC(C2)(C3)C(=O)O[C@@H](Cc2ccccc2)C(=O)N(C)[C@@H](C)C(=O)N[C@@H](Cc2cncnc2)C(=O)N[C@@H](CC2CC2)C(=O)N[C@@H](Cc2ccccc2F)C(=O)N[C@@H](CCC(C)(C)F)C(=O)N1C` [compound 340, cyclo(FLac-NMeA-PyrimAla-cPrA-Phe2F-hL3F-NMeSbMeF-amBCP)] (cyclo([Ala(cPr)][Phe(2-F)][X11][X44][X1][PhLac][NMeA][Ala(pyrimidin-5-yl)])) it is 4.25 µM.

(Values after patent publication US20260001914A1, “MACROCYCLIC PEPTIDES TARGETING KRAS” (Merck Sharp & Dohme LLC, priority 2022, published 2026).)
